Legend:
[1] = system: Staphylococcus aureus (S. aureus) 11540 strain; test: Standard microdilution MIC assay, S. aureus; assay type: cell-based
Experimental: (§1) The in vitro activity of the compounds of the present disclosure can be determined. Antimicrobial testing is typically performed to determine the minimum inhibitory concentration (MIC). Minimum inhibitory concentrations (MICs) are determined by the microdilution method in a final volume of 100 μl according to protocols outlined by The Clinical and Laboratory Standards Institute (CLSI). Performance standards for reference strains are assessed within the same experimental design to maintain quality control. See, for example, Clinical Laboratory Standards Institute: Methods for dilution antimicrobial susceptibility tests for bacteria that grow aerobically M7-A8. Approved Standard-Eighth Edition. Wayne, PA: CLSI; December 2008; and Clinical Laboratory Standards Institute: Performance Standards for Antimicrobial Susceptibility Testing M100-S20; Approved Standard-Twentieth Edition. Wayne, PA: CLSI; June 2010.
(§2) The compounds of the present disclosure were tested for antimicrobial activity. The Compounds 1-293 were run against Escherichia coli (E co/i) strain ATCC25922 and against Staphylococcus aureus (S. aureus) 11540 strain using a standard microdilution assay to determine minimum inhibitory concentrations (MICs). […] It will be recognized by one skilled in the art that the compounds can be assessed against other bacterial organisms and that the presentation of data for activity against Escherichia coli and Staphylococcus aureus are illustrative and in no way is intended to limit the scope of the present disclosure. The compounds of the present disclosure can be assayed against a range of other microorganisms depending upon the performance activity desired to be gathered. Furthermore, the “+” and “−” representation and the selection of a cutoff value of 16 micrograms/mL is also illustrative and in no way is intended to limit the scope of the present disclosure.

[2] = system: Escherichia coli strain ATCC25922; test: Standard microdilution MIC assay, E. coli; assay type: cell-based
Experimental: as §1, §2

| SMILES | MIC [1] [µg/mL] | MIC [2] [µg/mL] |
| --- | --- | --- |
| CC(=N)N[C@@H](C)C[C@@H]1CCC[C@@H](c2ccc(-n3cc4cc(-c5cc(CCC[C@@H](N)C6CC6)cc(Cl)c5F)[nH]c4nc3=O)cc2)N1 [Compound 256] | ≤ 16 | ≤ 16 |
| COc1cc(-n2cc3cc(-c4cc(CCC[C@@H](N)C5CC5)cc(C(F)(F)F)c4)[nH]c3nc2=O)ccc1[C@@H]1CCC[C@@H](CCNC(C)=N)N1 [Compound 243] | ≤ 16 | ≤ 16 |
| C=CCN(CC[C@@H]1CCC[C@@H](c2ccc(-n3cc4cc(-c5cc(CCC[C@@H](N)CF)cc(Cl)c5F)[nH]c4nc3=O)cc2)N1C)C(C)=N [Compound 181] | ≤ 16 | ≤ 16 |
| C=C[C@H](N)CCCc1cc(Cl)c(F)c(-c2cc3cn(-c4ccc([C@@H]5CCC[C@@H](CCNC(C)=N)N5)c(F)c4)c(=O)nc3[nH]2)c1 [Compound 173] | ≤ 16 | ≤ 16 |
| CC(=N)NCC[C@@H]1CCC[C@@H](c2ccc(-n3cc4cc(-c5cc(CCC[C@@H](N)C6CC6)cc(C(F)(F)F)c5)[nH]c4nc3=O)cc2F)N1CCCF [Compound 327] | ≤ 16 | ≤ 16 |
| C=C[C@H](N)CCCc1cc(Cl)c(F)c(-c2cc3cn(-c4ccc([C@@H]5CCC[C@@H](CCNC(C)=N)N5)c(OC)c4)c(=O)nc3[nH]2)c1 [Compound 244] | ≤ 16 | ≤ 16 |
| CC(=N)NCC[C@@H]1CCC[C@@H](c2ccc(-n3cc4cc(-c5cc(CCC[C@@H](N)CF)cc(C(F)(F)F)c5F)[nH]c4nc3=O)cc2F)N1 [Compound 221] | ≤ 16 | ≤ 16 |
| CC(=N)NCC[C@@H]1CCC[C@@H](c2ccc(-n3cc4cc(-c5cc(CCC[C@@H](N)C6CC6)cc(Cl)c5F)[nH]c4nc3=O)cn2)N1 [Compound 248] | ≤ 16 | ≤ 16 |
| C=C[C@H](N)CCCc1cc(-c2cc3cn(-c4ccc([C@@H]5CCC[C@@H](CCNC(C)=N)N5CCCF)c(SC)c4)c(=O)nc3[nH]2)cc(C(F)(F)F)c1 [Compound 342] | ≤ 16 | ≤ 16 |
| CC(C)(CN)CCc1cc(Cl)c(F)c(-c2cc3cn(-c4ccc(CNCCCNC(=N)CF)c(F)c4)c(=O)nc3[nH]2)c1 [Compound 74] | ≤ 16 | ≤ 16 |
| CC(C)(CN)CCc1cc(Cl)c(F)c(-c2cc3cn(-c4ccc([C@@H]5COC[C@@H](CCNC(=N)CF)N5)cc4)c(=O)nc3[nH]2)c1 [Compound 72] | ≤ 16 | ≤ 16 |
| COc1cc(-n2cc3cc(-c4cc(CCC[C@@H](N)CF)cc(C(F)(F)F)c4)[nH]c3nc2=O)ccc1[C@@H]1CCC[C@@H](CCNC(C)=N)N1 [Compound 209] | ≤ 16 | ≤ 16 |
| C=C[C@@H](N)CCCc1cc(Cl)c(F)c(-c2cc3cn(-c4ccc([C@@H]5COC[C@@H](CCNC(=N)CF)N5)cc4)c(=O)nc3[nH]2)c1 [Compound 57] | ≤ 16 | ≤ 16 |
| CC(=N)NCC[C@@H]1CCC[C@@H](c2c(F)cc(-n3cc4cc(-c5cc(CCC[C@H](C)N)cc(Cl)c5F)[nH]c4nc3=O)cc2N2CCOCC2)N1 [Compound 282] | ≤ 16 | ≤ 16 |
| CC(=N)NCC[C@@H]1CCC[C@@H](c2ccc(-n3cc4cc(-c5cc(CCC[C@@H](N)C6CC6)cc(Cl)c5F)[nH]c4nc3=O)cc2F)N1 [Compound 167] | ≤ 16 | ≤ 16 |
| CC(=N)NCC[C@@H]1CCC[C@@H](c2ccc(-n3cc4cc(-c5cc(CCC[C@@H](N)CF)cc(Cl)c5F)[nH]c4nc3=O)cc2F)N1 [Compound 170] | ≤ 16 | ≤ 16 |
| CC(=N)NCC[C@@H]1CCC[C@@H](c2c(F)cc(-n3cc4cc(-c5cc(CCC[C@@H](N)CO)cc(Cl)c5F)[nH]c4nc3=O)cc2F)N1 [Compound 281] | ≤ 16 | ≤ 16 |

Continued, values first:

| MIC [1] [µg/mL] | MIC [2] [µg/mL] | SMILES |
| --- | --- | --- |
| ≤ 16 | ≤ 16 | CC(=N)NCC[C@@H]1CCC[C@@H](c2ccc(-n3cc4cc(-c5cc(CCC[C@@H](N)CC#N)cc(Cl)c5F)[nH]c4nc3=O)cc2)N1 [Compound 154] |
| ≤ 16 | ≤ 16 | COCC(=N)NCC[C@@H]1CCC[C@@H](c2ccc(-n3cc4cc(-c5cc(CCC[C@H](C)N)cc(Cl)c5F)[nH]c4nc3=O)cc2)N1 [Compound 356] |
| ≤ 16 | ≤ 16 | CC(=N)NCC[C@H](CNc1ncc[nH]1)NCc1ccc(-n2cc3cc(-c4cc(CCC[C@H](C)N)cc(Cl)c4F)[nH]c3nc2=O)cc1 [Compound 19] |
| ≤ 16 | ≤ 16 | CC(=N)NCCCN[C@@H](C)c1ccc(-n2cc3cc(-c4cc(CCC[C@@H](N)C5CC5)cc(Cl)c4F)[nH]c3nc2=O)cc1F [Compound 99] |
| ≤ 16 | ≤ 16 | CC(=N)NCC[C@@H]1CCC[C@@H](c2ccc(-n3cc4cc(-c5cc(CCC[C@H](C)N)cc(Cl)c5F)[nH]c4nc3=O)cc2C)N1 [Compound 232] |
| ≤ 16 | ≤ 16 | CC(=N)NCC[C@H]1CNC[C@@H](c2ccc(-n3cc4cc(-c5cc(CCC[C@H](C)N)cc(Cl)c5F)[nH]c4nc3=O)cc2)N1 [Compound 48] |
| ≤ 16 | ≤ 16 | CC(=N)NCC[C@H](CO)N[C@@H](C)c1ccc(-n2cc3cc(-c4cc(CCC[C@H](C)N)cc(Cl)c4F)[nH]c3nc2=O)cc1 [Compound 96] |
| ≤ 16 | ≤ 16 | CC(=N)NCC[C@@H]1COC[C@@H](c2ccc(-n3cc4cc(-c5cc(CCC(C)(C)CN)cc(Cl)c5F)[nH]c4nc3=O)cc2)N1 [Compound 71] |
| ≤ 16 | ≤ 16 | C=C[C@@H](CCNC(C)=N)N[C@@H](C)c1ccc(-n2cc3cc(-c4cc(CCC[C@@H](N)CF)cc(Cl)c4F)[nH]c3nc2=O)cc1F [Compound 186] |
| ≤ 16 | ≤ 16 | COC[C@@H](CCNC(C)=N)NCc1ccc(-n2cc3cc(-c4cc(CCC[C@H](C)N)cc(Cl)c4F)[nH]c3nc2=O)cc1 [Compound 189] |
| ≤ 16 | ≤ 16 | CSC[C@@H](CCNC(C)=N)NCc1ccc(-n2cc3cc(-c4cc(CCC[C@H](C)N)cc(Cl)c4F)[nH]c3nc2=O)cc1 [Compound 95] |
| ≤ 16 | ≤ 16 | CC(=N)NCCCN[C@@H](C)c1ccc(-n2cc3cc(-c4cc(CCCC5(N)CC5)cc(Cl)c4F)[nH]c3nc2=O)cc1 [Compound 131] |
| > 16 | > 16 | C=CC(CCNC(=N)CF)NCc1ccc(-n2cc3cc(-c4cc(CCC[C@@H](N)C(F)(F)F)cc(Cl)c4F)[nH]c3nc2=O)cc1 (stereo partly shown) [Compound 13] |
| ≤ 16 | ≤ 16 | C=C[C@@H](N)CCCc1cc(Cl)c(F)c(-c2cc3cn(-c4ccc(CN[C@H](C=C)CCNC(C)=N)cc4)c(=O)nc3[nH]2)c1 [Compound 31] |
| ≤ 16 | ≤ 16 | C=C[C@H](N)CCCc1cc(Cl)c(F)c(-c2cc3cn(-c4ccc([C@@H]5CCC[C@@H](CCNC(C)=N)N5)cc4)c(=O)nc3[nH]2)c1 [Compound 82] |
| ≤ 16 | ≤ 16 | C[C@H](N)CCCc1cc(Cl)c(F)c(-c2cc3cn(-c4ccc(CN[C@H](CCNC(=N)CF)CNc5ncc[nH]5)cc4)c(=O)nc3[nH]2)c1 [Compound 21] |
| ≤ 16 | ≤ 16 | CC(=N)NCCCNCc1ccc(-n2cc3cc(-c4cc(CCC(C)(C)CN)cc(Cl)c4F)[nH]c3nc2=O)cc1F [Compound 73] |
| ≤ 16 | ≤ 16 | CCCC(=N)NCC[C@@H]1CCC[C@@H](c2ccc(-n3cc4cc(-c5cc(CCC[C@H](C)N)cc(Cl)c5F)[nH]c4nc3=O)cc2)N1 [Compound 352] |
